Laboratory results published in patent publication US20060093553A1, “Cd26-based therapies for cancers and immune disease” (priority 2002, published 2006).

System: wtCD26 Jurkat transfectant
Experiment: Immunoblotting of etoposide-induced apoptosis markers after z-LEHD-fmk preincubation
Type: cell-based, Human
Description: SDS-PAGE and Immunoblotting. After incubation at 37° C. in culture media and etoposide or doxorubicin at the concentrations and duration indicated, cells were harvested from wells, washed with PBS, and lysed in lysis buffer consisting of 1% NP-40, 0.5% deotxycolate, 0.1% SDS, 1 mM phenyhmethylsulfonyl fluoride, 1 mM benzamidine, 10 μg/ml aprotinin, 50 μg/ml leupeptin, 10 μg/ml soybean trypsin inhibitor and 1 μg/ml pepstatin. After incubating on ice for 5 min, nuclei were removed by centrifugation and supernatants were collected as whole cell lysates. Sample buffer (4×) consisting of 20% glycerol, 4.6% SDS, 0.5 M Tris (pH 6.8), 4% β-mercaptoethanol, and 0.2% bromophenol blue was added to the appropriate aliquots of supernatants. After boiling, protein samples were submitted to SDS-PAGE analysis on an 8% gel under standard conditions using a mini-Protean II system (Bio-Rad). For immunoblotting, the proteins were transferred onto nitrocellulobse (Immobilon-P; Millipore). After overnight. blocking at 4° C. in blocking solution consisting of 0.1% Tween 20 and 5% BSA in Tris-buffered saline, membranes were blotted with the appropriate primary antibodies diluted in blocking solution for 1 hour at room temperature. Membranes were then washed with blocking solution, and appropriate secondary antibodies diluted in blocking solution were then applied for 1 hour at room temperature. Secondary antibodies were goat antimouse or goat antirabbit horseradish peroxidase conjugates (Dako). Membranes were then washed with blocking solution, and proteins were subsequently detected by chemiluininescence (Amersham Pharmacia Biotech).

[1] = 2 hours preincubation with z-LEHD-fmk, then 3 μM etoposide 48 hours, FIG. 22B

Substance: z-LEHD-fmk
- etoposide-mediated cleavage of pro-caspase-9 (2 hours preincubation with z-LEHD-fmk at varying doses, then 3 μM etoposide 16 hours, FIG. 18): inhibited by z-LEHD-fink in dose-dependent manner
- cleavage of pro-caspase-3 and PARP (2 hours preincubation with z-LEHD-fmk, then 3 μM etoposide 16 hours, FIG. 18): significantly reduced
- etoposide-induced 32 kDa DR5 band [1]: no longer detectable
- etoposide-induced increase in the 58 kDa DR5 band [1]: significantly attenuated
